In PubChem BioAssay (NCI):
Several values for one entry are separate records, joined by “and”; a condition that tells them apart may be missing. Identical values can stand only once.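 Cells were grown in 96-well plates and exposed to each compound for 48 hours at five concentrations; endpoints were interpolated linearly between bracketing concentrations, or set to the highest concentration if not reached. The concentration for 50% growth inhibition is given as GI50. TGI denotes the concentration required for complete inhibition of growth.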

What was measured:
Test in all cases: NCI tumour cell line growth inhibition, 48 h
SK-MEL-5 melanoma = system: SK-MEL-5 melanoma
LOX IMVI melanoma = system: LOX IMVI melanoma
CAKI-1 renal = system: CAKI-1 renal
SF-295 CNS = system: SF-295 CNS
XF 498 CNS = system: XF 498 CNS
NCI/ADR-RES ovarian = system: NCI/ADR-RES ovarian
DLD-1 colon = system: DLD-1 colon
MALME-3M melanoma = system: MALME-3M melanoma
UO-31 renal = system: UO-31 renal
SW-620 colon = system: SW-620 colon
U251 CNS = system: U251 CNS

Structure (SMILES)	GI50 (SK-MEL-5 melanoma)	TGI (SK-MEL-5 melanoma)	GI50 (LOX IMVI melanoma)	TGI (LOX IMVI melanoma)	GI50 (CAKI-1 renal)	TGI (CAKI-1 renal)	GI50 (SF-295 CNS)	TGI (SF-295 CNS)	TGI (XF 498 CNS)	GI50 (NCI/ADR-RES ovarian)	TGI (NCI/ADR-RES ovarian)	TGI (DLD-1 colon)	GI50 (MALME-3M melanoma)	TGI (MALME-3M melanoma)	GI50 (UO-31 renal)	TGI (UO-31 renal)	GI50 (SW-620 colon)	TGI (SW-620 colon)	GI50 (U251 CNS)	TGI (U251 CNS)
CC1=C2C(=CO[C@H](C)[C@H]2C)C(=O)C(C(=O)O)=C1O	20.4 µM	35.7 µM and 45.4 µM	20.1 µM	44.7 µM and 53.8 µM	16.6 µM	54.2 µM and 77.8 µM	24.7 µM	97.1 µM and 61.3 µM	13.6 µM	26.9 µM	79.4 µM and 152 µM	66.9 µM	21 µM	54.4 µM and 115 µM	22.3 µM	106 µM and 50.6 µM	26.9 µM	> 74.5 µM and 77.4 µM	18.8 µM	43.4 µM and 41 µM
O=C1c2c(O)cccc2-c2nn(CCNCCO)c3ccc(NCCNCCO)c1c23	–	1.13 µM	–	1.68 µM	–	1.81 µM	–	1.39 µM	0.379 µM	–	> 100 µM	> 41.3 µM	–	1.12 µM	–	10.2 µM	–	7.09 µM	–	0.195 µM
CC1(C)CC2(CC(C)(C)N1O)NC(=O)OC2=O	–	> 100 µM	–	> 100 µM	–	> 100 µM	–	> 100 µM	> 100 µM	–	> 100 µM	> 100 µM	–	> 100 µM	–	> 100 µM	–	> 100 µM	–	> 100 µM
COc1cccc(N[C@@H]2c3cc4c(cc3C(c3cc(OC)c(O)c(OC)c3)[C@H]3C(=O)OCC32)OCO4)c1 (some centres not stated)	–	3.04 µM	–	10.3 µM	–	2.12 µM	–	2.5 µM	23.9 µM	–	> 70.2 µM	8.35 µM	–	20.7 µM	–	9.78 µM	–	> 43.2 µM	–	13 µM
CN=C(/N=c1\ssc(=NC)n1C)N(C)C	–	> 100 µM	–	> 100 µM	–	> 100 µM	–	> 100 µM	> 100 µM	–	–	> 100 µM	–	–	–	> 100 µM	–	> 100 µM	–	> 100 µM
CN1C(=O)C(O)C[C@@H]1c1ccccc1 (some centres not stated)	–	> 100 µM	–	> 100 µM	–	> 100 µM	–	> 100 µM	–	–	> 100 µM	–	–	> 100 µM	–	> 100 µM	–	> 100 µM	–	> 100 µM
COc1cccc(N=N/C(=N\NC(=O)c2ccc(C)cc2)c2ccc(N(CCC#N)CCC#N)cc2C)c1	–	> 100 µM	–	> 100 µM	–	> 100 µM	–	> 100 µM	–	–	> 100 µM	–	–	> 100 µM	–	> 100 µM	–	> 100 µM	–	> 100 µM
O=C(c1cccs1)N1CCN(C(=O)c2cccs2)C1=S	–	18.2 µM	–	10.8 µM	–	15.3 µM	–	30.5 µM	–	–	59 µM	–	–	28.7 µM	–	8.5 µM	–	24.6 µM	–	18.2 µM
Nc1ccc(S(=O)(=O)Nc2nc3ccccc3nc2N2CCCCCC2)cc1	–	30.1 µM	–	33.5 µM	–	82.7 µM	–	57.3 µM	–	–	> 100 µM	–	–	85.9 µM	–	40.8 µM	–	54.1 µM	–	46.4 µM
N#Cc1cc2c(n(C3OC(CO)C(O)C(O)C3O)c1=S)CCCCCC2 (configuration not stated)	–	> 100 µM	–	> 100 µM	–	> 100 µM	–	> 100 µM	–	–	> 100 µM	–	–	> 100 µM	–	> 100 µM	–	> 100 µM	–	> 100 µM
NCc1cccc(O)c1O	–	> 100 µM	–	> 100 µM	–	> 100 µM	–	> 100 µM	> 100 µM	–	–	> 100 µM	–	> 100 µM	–	> 100 µM	–	> 100 µM	–	> 100 µM
Cc1ccccc1-c1nc2c(C(=O)NCCN(C)C)cccc2[nH]1	–	53.7 µM	–	> 100 µM	–	> 100 µM	–	> 100 µM	> 100 µM	–	> 100 µM	> 100 µM	–	> 62.2 µM	–	68.7 µM	–	> 100 µM	–	> 100 µM
COc1ccc(-c2oc3cc(O)cc(O)c3c(=O)c2OC)cc1	–	43.5 µM	–	> 100 µM	–	60 µM	–	> 100 µM	–	–	> 100 µM	–	–	> 100 µM	–	56.6 µM	–	> 100 µM	–	52.1 µM
